Experimental data: paper PMC5321607 (ACS infectious diseases, 2016)

Experiments:
[1] = target: anti-polymyxin B mouse IgM monoclonal antibody (clone 45); format: binding; conditions: SPR; for Kd: Biacore T200, 25°C, HBS-EP+, 1:1 kinetic fit or steady-state
P. aeruginosa ATCC 27853 = test: MIC by broth microdilution; format: cell-based; conditions: CaMHB, 18 h, 37°C
[2] = tested on: P. aeruginosa FADDI-PA001; test: MIC by broth microdilution; format: cell-based; conditions: CaMHB, 18 h, 37°C
[3] = tested on: P. aeruginosa FADDI-PA025; test: MIC by broth microdilution; format: cell-based; conditions: CaMHB, 18 h, 37°C
[4] = tested on: P. aeruginosa FADDI-PA070; test: MIC by broth microdilution; format: cell-based; conditions: CaMHB, 18 h, 37°C
[5] = tested on: P. aeruginosa FADDI-PA060; test: MIC by broth microdilution; format: cell-based; conditions: CaMHB, 18 h, 37°C
[6] = tested on: P. aeruginosa FADDI-PA090; test: MIC by broth microdilution; format: cell-based; conditions: CaMHB, 18 h, 37°C
A. baumannii ATCC 19606 = test: MIC by broth microdilution; format: cell-based; conditions: CaMHB, 18 h, 37°C
A. baumannii FADDI-AB110 = test: MIC by broth microdilution; format: cell-based; conditions: CaMHB, 18 h, 37°C
A. baumannii ATCC 17978 = test: MIC by broth microdilution; format: cell-based; conditions: CaMHB, 18 h, 37°C
A. baumannii FADDI-AB156 = test: MIC by broth microdilution; format: cell-based; conditions: CaMHB, 18 h, 37°C
A. baumannii FADDI-AB167 = test: MIC by broth microdilution; format: cell-based; conditions: CaMHB, 18 h, 37°C
[7] = tested on: K. pneumoniae FADDI-KP032; test: MIC by broth microdilution; format: cell-based; conditions: CaMHB, 18 h, 37°C
[8] = tested on: K. pneumoniae FADDI-KP027; test: MIC by broth microdilution; format: cell-based; conditions: CaMHB, 18 h, 37°C
[9] = tested on: K. pneumoniae FADDI-KP003; test: MIC by broth microdilution; format: cell-based; conditions: CaMHB, 18 h, 37°C
[10] = tested on: K. pneumoniae FADDI-KP012; test: MIC by broth microdilution; format: cell-based; conditions: CaMHB, 18 h, 37°C
E. cloacae FADDI-EC006 = test: MIC by broth microdilution; format: cell-based; conditions: CaMHB, 18 h, 37°C
E. cloacae FADDI-EC001 = test: MIC by broth microdilution; format: cell-based; conditions: CaMHB, 18 h, 37°C
E. cloacae FADDI-EC003 = test: MIC by broth microdilution; format: cell-based; conditions: CaMHB, 18 h, 37°C

Substance	Kd [1] [nM]	reduction in mAb binding affinity ([1]; compared to polymyxin B (FADDI-206/207: polymyxin B and colistin)) [fold]	MIC (P. aeruginosa ATCC 27853) [µg/mL]	MIC [2] [µg/mL]	MIC [3] [µg/mL]	MIC [4] [µg/mL]	MIC [5] [µg/mL]	MIC [6] [µg/mL]	MIC (A. baumannii ATCC 19606) [µg/mL]	MIC (A. baumannii FADDI-AB110) [µg/mL]	MIC (A. baumannii ATCC 17978) [µg/mL]	MIC (A. baumannii FADDI-AB156) [µg/mL]	MIC (A. baumannii FADDI-AB167) [µg/mL]	MIC [7] [µg/mL]	MIC [8] [µg/mL]	MIC [9] [µg/mL]	MIC [10] [µg/mL]	MIC (E. cloacae FADDI-EC006) [µg/mL]	MIC (E. cloacae FADDI-EC001) [µg/mL]	MIC (E. cloacae FADDI-EC003) [µg/mL]
Octanoyl-Dab-Thr-Dab-Dab ^*-Dab-D-Leu-Leu-Dab-Dab-Thr ^* [Colistin]	560	2	1	1	2	>128	>128	8	1	0.5	0.5	16	8	1	>128	128	32	<0.125	0.25	<0.125
Octanoyl-Dab-Thr-Dab-Dab ^*-Dab-D-Phe-Leu-Dab-Dab-Thr ^* [Polymyxin B]	260	–	1	1	1	32	>32	4	1	0.5	1	8	16	<0.125	128	>32	16	0.5	0.25	0.5
